Measurements from patent US7074789B2, “Kinase inhibitors” (Amgen Inc., priority 1999, dated 2006).

Tests used:
Format in all cases: biochemical
Lck = target: T1, Lck (Homo sapiens, UniProt P06239); assay: Kinase inhibition assay (33P transfer), Lck; settings: read-out: Lck-1
T1 construct: Kinases are expressed as either kinase domains or full length constructs; made in house
Method in brief: (§1)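 Kinase domain or full-length constructs, GST- or polyHis-tagged, expressed in E. coli or baculovirus-High Five cells, sometimes with regulatory polypeptides. Activity measured as 33PO4 transfer from ATP to plate-bound poly(Glu,Tyr) 4:1 or poly(Arg,Ser) 3:1; after incubation, plates washed with 0.5% phosphoric acid and counted by liquid scintillation.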

c-Met = target: T2, c-Met (Homo sapiens, UniProt P08581); assay: Kinase inhibition assay (33P transfer), c-Met; settings: Table 2, kinase inhibition class; read-out: Met-1
T2 construct: Kinases are expressed as either kinase domains or full length constructs; made in house
Method in brief: (§2)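 IC50: inhibitor concentration lowering 33P incorporation into immobilised substrate by 50%. Label transferred from ATP to poly(Glu,Tyr) 4:1 or poly(Arg,Ser) 3:1 is measured after a 0.5% phosphoric acid wash by liquid scintillation.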

Kdr = target: T3, Kdr (Homo sapiens, UniProt P35968); assay: Kinase inhibition assay (33P transfer), Kdr; settings: read-out: KDR-1
T3 construct: Kinases are expressed as either kinase domains or full length constructs; made in house
T3 sequence (P35968 20-1356, species assumed): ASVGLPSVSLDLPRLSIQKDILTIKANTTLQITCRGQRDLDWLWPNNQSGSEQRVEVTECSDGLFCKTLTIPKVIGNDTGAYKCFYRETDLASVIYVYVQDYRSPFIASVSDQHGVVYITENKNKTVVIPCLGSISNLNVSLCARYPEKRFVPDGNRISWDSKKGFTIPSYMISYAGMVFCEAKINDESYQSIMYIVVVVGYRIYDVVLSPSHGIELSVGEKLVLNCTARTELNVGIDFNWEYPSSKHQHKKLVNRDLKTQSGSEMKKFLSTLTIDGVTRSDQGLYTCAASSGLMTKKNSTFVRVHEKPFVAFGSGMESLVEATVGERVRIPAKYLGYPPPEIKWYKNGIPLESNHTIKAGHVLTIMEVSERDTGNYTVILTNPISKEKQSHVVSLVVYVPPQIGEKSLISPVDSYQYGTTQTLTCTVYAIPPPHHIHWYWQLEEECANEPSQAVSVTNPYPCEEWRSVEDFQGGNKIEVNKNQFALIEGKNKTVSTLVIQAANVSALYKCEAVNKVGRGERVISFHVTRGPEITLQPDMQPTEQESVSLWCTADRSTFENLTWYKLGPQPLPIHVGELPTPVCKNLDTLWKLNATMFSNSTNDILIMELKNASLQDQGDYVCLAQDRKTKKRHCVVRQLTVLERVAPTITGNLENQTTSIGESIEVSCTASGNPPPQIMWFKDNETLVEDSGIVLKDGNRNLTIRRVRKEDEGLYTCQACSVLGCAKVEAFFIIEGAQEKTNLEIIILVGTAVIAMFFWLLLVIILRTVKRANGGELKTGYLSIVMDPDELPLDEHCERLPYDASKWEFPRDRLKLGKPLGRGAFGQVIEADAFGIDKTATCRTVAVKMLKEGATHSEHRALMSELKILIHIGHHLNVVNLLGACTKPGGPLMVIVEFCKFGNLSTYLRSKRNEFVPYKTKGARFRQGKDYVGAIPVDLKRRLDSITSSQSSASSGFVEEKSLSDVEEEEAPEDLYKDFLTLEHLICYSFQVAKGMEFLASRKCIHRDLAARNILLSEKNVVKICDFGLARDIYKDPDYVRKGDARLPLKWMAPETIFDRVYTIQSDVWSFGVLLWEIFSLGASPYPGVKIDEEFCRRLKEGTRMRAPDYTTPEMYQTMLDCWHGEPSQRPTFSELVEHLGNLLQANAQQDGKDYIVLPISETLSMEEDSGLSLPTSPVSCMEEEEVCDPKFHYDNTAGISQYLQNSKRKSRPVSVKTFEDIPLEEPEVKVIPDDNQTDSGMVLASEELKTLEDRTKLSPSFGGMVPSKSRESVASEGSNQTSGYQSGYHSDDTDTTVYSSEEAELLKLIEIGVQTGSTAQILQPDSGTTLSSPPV
Method in brief: as §1

PDGFRB = target: T4, PDGFRB (Homo sapiens, UniProt P09619); assay: Kinase inhibition assay (33P transfer), PDGFRB; settings: read-out: PDGFRB-1
T4 construct: Kinases are expressed as either kinase domains or full length constructs; made in house
T4 sequence (P09619 33-1106, species assumed): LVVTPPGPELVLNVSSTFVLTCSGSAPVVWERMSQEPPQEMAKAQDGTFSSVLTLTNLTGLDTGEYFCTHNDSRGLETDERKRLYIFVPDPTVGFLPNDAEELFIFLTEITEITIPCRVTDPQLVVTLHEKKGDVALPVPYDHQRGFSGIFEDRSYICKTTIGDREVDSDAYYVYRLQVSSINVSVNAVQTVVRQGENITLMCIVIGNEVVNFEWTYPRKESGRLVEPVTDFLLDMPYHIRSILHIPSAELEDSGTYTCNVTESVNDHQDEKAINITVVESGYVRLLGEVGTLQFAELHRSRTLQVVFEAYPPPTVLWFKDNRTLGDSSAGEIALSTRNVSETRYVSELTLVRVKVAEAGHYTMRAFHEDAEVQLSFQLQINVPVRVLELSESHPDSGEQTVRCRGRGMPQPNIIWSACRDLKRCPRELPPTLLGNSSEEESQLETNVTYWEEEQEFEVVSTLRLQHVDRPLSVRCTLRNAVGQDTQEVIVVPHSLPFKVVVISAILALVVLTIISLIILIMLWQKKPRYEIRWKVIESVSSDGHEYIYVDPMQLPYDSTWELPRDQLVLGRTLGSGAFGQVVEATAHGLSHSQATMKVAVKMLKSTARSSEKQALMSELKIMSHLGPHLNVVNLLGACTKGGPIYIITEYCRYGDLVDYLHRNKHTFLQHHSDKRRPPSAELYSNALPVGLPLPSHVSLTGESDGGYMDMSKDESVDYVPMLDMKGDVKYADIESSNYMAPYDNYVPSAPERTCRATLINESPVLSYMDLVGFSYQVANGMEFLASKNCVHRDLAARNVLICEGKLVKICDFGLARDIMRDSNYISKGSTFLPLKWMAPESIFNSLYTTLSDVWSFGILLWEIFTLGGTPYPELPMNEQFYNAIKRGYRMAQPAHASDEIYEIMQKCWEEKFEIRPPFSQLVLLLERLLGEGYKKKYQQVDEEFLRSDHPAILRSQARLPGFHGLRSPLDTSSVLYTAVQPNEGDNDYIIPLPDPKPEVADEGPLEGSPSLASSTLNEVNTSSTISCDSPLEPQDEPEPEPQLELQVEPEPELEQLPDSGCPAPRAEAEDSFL

Zap-70 = target: T5, Zap-70 (Homo sapiens, UniProt P43403); assay: Kinase inhibition assay (33P transfer), Zap-70; settings: read-out: Zap-1
T5 construct: Kinases are expressed as either kinase domains or full length constructs; made in house
T5 sequence (P43403 1-619): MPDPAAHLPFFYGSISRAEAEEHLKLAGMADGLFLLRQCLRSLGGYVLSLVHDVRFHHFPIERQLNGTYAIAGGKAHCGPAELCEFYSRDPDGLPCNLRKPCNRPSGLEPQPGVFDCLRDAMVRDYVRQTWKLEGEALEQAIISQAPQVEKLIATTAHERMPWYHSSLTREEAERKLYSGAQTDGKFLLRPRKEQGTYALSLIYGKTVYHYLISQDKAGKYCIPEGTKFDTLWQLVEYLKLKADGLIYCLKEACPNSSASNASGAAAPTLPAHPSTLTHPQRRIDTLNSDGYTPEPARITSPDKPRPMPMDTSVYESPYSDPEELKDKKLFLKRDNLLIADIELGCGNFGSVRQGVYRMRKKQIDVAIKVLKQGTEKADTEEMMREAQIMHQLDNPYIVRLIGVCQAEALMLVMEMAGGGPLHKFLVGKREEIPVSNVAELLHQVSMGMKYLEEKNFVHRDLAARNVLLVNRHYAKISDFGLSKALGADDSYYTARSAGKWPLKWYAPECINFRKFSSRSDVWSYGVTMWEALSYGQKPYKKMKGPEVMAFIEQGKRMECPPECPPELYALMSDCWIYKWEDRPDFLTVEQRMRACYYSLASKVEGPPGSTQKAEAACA
Method in brief: as §1

ErbB2 = target: T6, ErbB2 (Homo sapiens, UniProt P04626); assay: Kinase inhibition assay (33P transfer), ErbB2; settings: read-out: ErbB2-2
T6 construct: Kinases are expressed as either kinase domains or full length constructs; made in house
Method in brief: as §2

AKT = target: T7, AKT (Homo sapiens, UniProt Q9Y243); assay: Kinase inhibition assay (33P transfer), AKT; settings: Table 2, kinase inhibition class; read-out: AKT3-1
T7 construct: Kinases are expressed as either kinase domains or full length constructs; made in house
Method in brief: as §1

EGFR = target: T8, EGFR (Homo sapiens, UniProt P00533); assay: Kinase inhibition assay (33P transfer), EGFR; settings: Table 2, kinase inhibition class; read-out: EGFR-1
T8 construct: Kinases are expressed as either kinase domains or full length constructs; made in house
T8 sequence (P00533 25-1210, species assumed): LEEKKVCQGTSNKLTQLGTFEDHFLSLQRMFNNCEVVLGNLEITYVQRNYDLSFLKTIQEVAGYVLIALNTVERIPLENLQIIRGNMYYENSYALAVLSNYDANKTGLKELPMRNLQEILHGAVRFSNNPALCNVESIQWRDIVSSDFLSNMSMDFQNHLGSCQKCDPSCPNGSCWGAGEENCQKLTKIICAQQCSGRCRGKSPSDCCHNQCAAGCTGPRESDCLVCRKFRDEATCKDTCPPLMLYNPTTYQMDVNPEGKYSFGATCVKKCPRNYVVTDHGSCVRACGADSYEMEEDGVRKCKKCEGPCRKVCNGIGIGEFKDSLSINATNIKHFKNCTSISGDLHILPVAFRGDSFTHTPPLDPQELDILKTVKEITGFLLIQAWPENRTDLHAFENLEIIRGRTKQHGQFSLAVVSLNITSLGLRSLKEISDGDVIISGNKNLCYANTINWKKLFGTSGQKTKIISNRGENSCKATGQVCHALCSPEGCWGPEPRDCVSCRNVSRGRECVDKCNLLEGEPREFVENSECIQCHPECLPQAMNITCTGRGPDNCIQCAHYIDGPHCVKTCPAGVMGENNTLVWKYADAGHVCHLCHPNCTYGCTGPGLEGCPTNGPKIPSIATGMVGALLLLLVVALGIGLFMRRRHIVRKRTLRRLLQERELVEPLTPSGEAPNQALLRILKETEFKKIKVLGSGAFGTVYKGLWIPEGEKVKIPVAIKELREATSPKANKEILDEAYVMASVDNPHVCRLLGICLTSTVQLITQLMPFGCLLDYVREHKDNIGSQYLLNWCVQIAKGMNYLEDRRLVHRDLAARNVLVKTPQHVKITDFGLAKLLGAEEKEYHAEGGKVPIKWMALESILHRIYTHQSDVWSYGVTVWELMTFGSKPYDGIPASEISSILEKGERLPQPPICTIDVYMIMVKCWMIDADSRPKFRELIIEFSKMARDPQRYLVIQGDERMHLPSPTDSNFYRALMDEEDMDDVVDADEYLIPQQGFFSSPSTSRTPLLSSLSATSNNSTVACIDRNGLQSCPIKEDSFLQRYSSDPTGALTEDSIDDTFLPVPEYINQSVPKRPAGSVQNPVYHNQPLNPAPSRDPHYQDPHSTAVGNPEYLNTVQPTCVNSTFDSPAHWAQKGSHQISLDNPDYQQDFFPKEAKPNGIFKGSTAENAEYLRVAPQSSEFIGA
Method in brief: as §2

Itk = target: T9, Itk (Homo sapiens, UniProt Q08881); assay: Kinase inhibition assay (33P transfer), Itk; settings: read-out: Itk-1
T9 construct: Kinases are expressed as either kinase domains or full length constructs; made in house
T9 sequence (Q08881 1-620): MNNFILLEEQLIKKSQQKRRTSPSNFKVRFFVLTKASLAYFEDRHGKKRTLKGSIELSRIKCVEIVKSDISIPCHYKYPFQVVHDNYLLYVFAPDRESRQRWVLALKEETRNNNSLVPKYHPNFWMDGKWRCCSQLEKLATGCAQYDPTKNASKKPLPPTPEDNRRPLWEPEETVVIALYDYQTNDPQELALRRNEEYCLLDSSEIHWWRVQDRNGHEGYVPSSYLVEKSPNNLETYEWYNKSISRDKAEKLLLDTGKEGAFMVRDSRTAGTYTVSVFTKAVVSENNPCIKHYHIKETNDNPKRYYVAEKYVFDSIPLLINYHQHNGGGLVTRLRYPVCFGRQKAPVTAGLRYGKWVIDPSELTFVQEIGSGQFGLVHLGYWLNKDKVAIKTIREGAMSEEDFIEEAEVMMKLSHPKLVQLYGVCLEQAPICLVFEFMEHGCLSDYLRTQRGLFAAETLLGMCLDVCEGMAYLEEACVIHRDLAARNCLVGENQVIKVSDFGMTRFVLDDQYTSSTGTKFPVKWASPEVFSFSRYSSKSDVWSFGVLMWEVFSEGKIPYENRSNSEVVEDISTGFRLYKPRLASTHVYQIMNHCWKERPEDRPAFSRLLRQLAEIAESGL
Method in brief: as §2

IGFR-1 = target: T10, IGFR-1 (Homo sapiens, UniProt P08069); assay: Kinase inhibition assay, IGFR-1 (Table 2); settings: Table 2, kinase inhibition class
T10 construct: Kinases are expressed as either kinase domains or full length constructs; made in house
T10 sequence (P08069 31-1367): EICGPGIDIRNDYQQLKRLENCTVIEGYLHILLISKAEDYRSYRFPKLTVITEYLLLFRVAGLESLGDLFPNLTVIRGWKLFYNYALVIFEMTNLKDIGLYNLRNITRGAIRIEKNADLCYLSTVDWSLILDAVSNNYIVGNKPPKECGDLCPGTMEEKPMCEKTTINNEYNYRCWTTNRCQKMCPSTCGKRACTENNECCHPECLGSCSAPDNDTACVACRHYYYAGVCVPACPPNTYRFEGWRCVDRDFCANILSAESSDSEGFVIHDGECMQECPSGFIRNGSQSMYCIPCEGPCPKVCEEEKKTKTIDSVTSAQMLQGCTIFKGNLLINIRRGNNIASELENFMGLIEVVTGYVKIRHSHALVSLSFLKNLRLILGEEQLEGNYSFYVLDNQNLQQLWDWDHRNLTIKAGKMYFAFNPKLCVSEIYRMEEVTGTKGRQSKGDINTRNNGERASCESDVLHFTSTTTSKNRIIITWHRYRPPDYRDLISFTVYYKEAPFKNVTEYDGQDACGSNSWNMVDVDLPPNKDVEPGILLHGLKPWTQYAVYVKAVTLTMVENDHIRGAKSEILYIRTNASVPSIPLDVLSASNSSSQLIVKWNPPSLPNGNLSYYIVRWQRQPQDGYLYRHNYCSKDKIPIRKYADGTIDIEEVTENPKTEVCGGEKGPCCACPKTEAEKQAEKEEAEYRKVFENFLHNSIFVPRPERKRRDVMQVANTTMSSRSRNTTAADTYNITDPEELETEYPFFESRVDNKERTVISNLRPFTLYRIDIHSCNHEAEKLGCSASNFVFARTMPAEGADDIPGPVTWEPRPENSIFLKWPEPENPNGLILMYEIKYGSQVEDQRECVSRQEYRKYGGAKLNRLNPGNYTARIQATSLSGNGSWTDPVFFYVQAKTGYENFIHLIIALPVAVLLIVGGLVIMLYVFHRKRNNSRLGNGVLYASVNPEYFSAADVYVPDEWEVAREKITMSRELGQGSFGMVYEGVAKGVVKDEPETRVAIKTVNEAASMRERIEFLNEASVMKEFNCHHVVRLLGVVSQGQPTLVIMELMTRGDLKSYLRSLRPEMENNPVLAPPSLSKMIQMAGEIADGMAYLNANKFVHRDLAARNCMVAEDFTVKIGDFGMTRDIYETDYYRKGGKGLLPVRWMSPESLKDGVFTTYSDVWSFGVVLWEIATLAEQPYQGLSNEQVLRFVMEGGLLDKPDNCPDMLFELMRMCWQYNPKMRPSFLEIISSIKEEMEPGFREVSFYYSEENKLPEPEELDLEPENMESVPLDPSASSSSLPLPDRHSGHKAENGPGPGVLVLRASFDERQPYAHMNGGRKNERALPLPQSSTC

| SMILES | IC50 (Lck) [µM] | IC50 (c-Met) [µM] | IC50 (Kdr) [µM] | IC50 (PDGFRB) [µM] | IC50 (Zap-70) [µM] | IC50 (ErbB2) [µM] | IC50 (AKT) [µM] | IC50 (EGFR) [µM] | IC50 (Itk) [µM] | IC50 (IGFR-1) [µM] |
| --- | --- | --- | --- | --- | --- | --- | --- | --- | --- | --- |
| COc1cc(Nc2ncnc(-n3c(NCc4ncc[nH]4)nc4ccccc43)n2)cc(OC)c1OC [Compound 583] | 0.845 to 5.07 | > 9.5 | 5.07 to 7.39 | 0.845 to 5.07 | > 9.5 | > 9.5 | > 9.5 | > 9.5 | 0.845 to 5.07 | 0.845 to 5.07 |
| COc1cc(Nc2ncnc(N[C@@H]3CCCc4ccccc43)n2)cc(OC)c1OC [Compound 620] | 0.982 to 5.89 | 5.89 to 8.59 | 8.59 to 11 | > 11 | 8.59 to 11 | 8.59 to 11 | > 11 | 0.982 to 5.89 | > 11 | > 11 |
| COC(=O)Cc1cccc(Nc2ncnc(-n3c(NCc4ccccc4)nc4ccccc43)n2)c1 [Compound 545] | 0.859 to 5.16 | > 9.67 | < 0.859 | < 0.859 | > 9.67 | 7.52 to 9.67 | > 9.67 | 0.859 to 5.16 | > 9.67 | > 9.67 |
| CCOC(=O)CNc1ncnc(N2CCCc3cc(C)ccc32)n1 [Compound 761] | > 13.7 | > 13.7 | > 13.7 | > 13.7 | > 13.7 | > 13.7 | > 13.7 | > 13.7 | > 13.7 | > 13.7 |
| COc1ccc(-c2cc(Nc3ncnc(Nc4ccc(CC(N)=O)cc4)n3)[nH]n2)cc1 [Compound 576] | < 0.961 | < 0.961 | < 0.961 | > 10.8 | > 10.8 | > 10.8 | > 10.8 | 0.961 to 5.76 | 0.961 to 5.76 | < 0.961 |
| CN(c1cccc(Cl)c1)c1ncnc(Nc2ccc3[nH]ccc3c2)n1 [Compound 714] | 1.14 to 6.84 | 1.14 to 6.84 | 1.14 to 6.84 | 1.14 to 6.84 | > 12.8 | < 1.14 | > 12.8 | < 1.14 | > 12.8 | 1.14 to 6.84 |
| COc1ccc(Nc2ncnc(NCCCN3CCN(C)CC3)n2)cc1OC [Compound 786] | > 11.6 | > 11.6 | > 11.6 | > 11.6 | > 11.6 | > 11.6 | > 11.6 | > 11.6 | > 11.6 | > 11.6 |
| Cc1ccc2c(c1)CCCN2c1ncnc(NCC2CCCO2)n1 (centres unmarked) [Compound 759] | > 13.8 | > 13.8 | > 13.8 | > 13.8 | > 13.8 | > 13.8 | > 13.8 | > 13.8 | > 13.8 | > 13.8 |
| CCOc1cccc(Nc2ncnc(Nc3ccc(OC)c(OC)c3)n2)c1 [Compound 783] | 1.09 to 6.53 | > 12.2 | 9.53 to 12.2 | 6.53 to 9.53 | > 12.2 | 6.53 to 9.53 | > 12.2 | > 12.2 | > 12.2 | 1.09 to 6.53 |
| CCN(c1cccc(C)c1)c1ncnc(Nc2cc(OC)c(OC)c(OC)c2)n1 [Compound 537] | < 1.01 | 1.01 to 6.07 | < 1.01 | 1.01 to 6.07 | > 11.4 | 1.01 to 6.07 | > 11.4 | < 1.01 | 8.85 to 11.4 | 1.01 to 6.07 |
| c1ccc(Cn2ncc3cc(Nc4ncnc(Nc5ccc(N6CCCCC6)cc5)n4)ccc32)cc1 [Compound 735] | > 9.44 | 7.34 to 9.44 | 0.839 to 5.04 | > 9.44 | 5.04 to 7.34 | 0.839 to 5.04 | 5.04 to 7.34 | < 0.839 | 7.34 to 9.44 | 7.34 to 9.44 |
| COc1ccc(CCNc2ncnc(N3CCCc4cc(C)ccc43)n2)cc1OC [Compound 771] | > 11.1 | > 11.1 | 5.92 to 8.63 | > 11.1 | > 11.1 | > 11.1 | > 11.1 | > 11.1 | > 11.1 | > 11.1 |
| COC(=O)Cc1cccc(Nc2ncnc(Nc3cccc(Br)c3)n2)c1 [Compound 540] | 0.966 to 5.79 | 5.79 to 8.45 | 5.79 to 8.45 | 8.45 to 10.9 | > 10.9 | 0.966 to 5.79 | > 10.9 | < 0.966 | 8.45 to 10.9 | < 0.966 |
| COc1cc(Nc2ncnc(-c3cccnc3N)n2)cc(OC)c1OC [Compound 1091] | 1.13 to 6.77 | 9.88 to 12.7 | < 1.13 | < 1.13 | > 12.7 | 1.13 to 6.77 | 6.77 to 9.88 | > 12.7 | 9.88 to 12.7 | > 12.7 |
| COc1cc(Nc2ncnc(Nc3cc(Cl)ccc3C)n2)cc(OC)c1OC [Compound 625] | < 0.995 | > 11.2 | 0.995 to 5.97 | < 0.995 | > 11.2 | < 0.995 | > 11.2 | < 0.995 | > 11.2 | 0.995 to 5.97 |
| CC(=O)N1CCc2cc(Nc3ncnc(N4CCCc5cc(C)ccc54)n3)ccc21 [Compound 764] | > 11.2 | < 0.999 | > 11.2 | < 0.999 | > 11.2 | > 11.2 | > 11.2 | < 0.999 | > 11.2 | > 11.2 |
| Nc1nc2ccccc2n1-c1ncnc(Nc2cccc(CC(=O)NCc3ccccn3)c2)n1 [Compound 956] | 5.32 to 7.75 | 7.75 to 9.97 | < 0.886 | 5.32 to 7.75 | > 9.97 | > 9.97 | > 9.97 | > 9.97 | 0.886 to 5.32 | < 0.886 |
| COCCCNc1ncnc(N2CCCc3cc(C)ccc32)n1 [Compound 762] | > 14.4 | > 14.4 | > 14.4 | > 14.4 | > 14.4 | > 14.4 | > 14.4 | 11.2 to 14.4 | > 14.4 | > 14.4 |
| CN(c1cccc(Cl)c1)c1ncnc(Nc2cccc(CNC(=O)O[C@@H]3CCOC3)c2)n1 [Compound 721] | 0.879 to 5.28 | 0.879 to 5.28 | 0.879 to 5.28 | 0.879 to 5.28 | > 9.89 | 0.879 to 5.28 | > 9.89 | < 0.879 | > 9.89 | 7.69 to 9.89 |
| CCOC(=O)N1CCC(Nc2ncnc(N3CCCc4cc(C)ccc43)n2)CC1 [Compound 765] | > 11.3 | > 11.3 | > 11.3 | > 11.3 | > 11.3 | > 11.3 | > 11.3 | > 11.3 | > 11.3 | > 11.3 |
